This passage reports EC50 results from patent US20250312352A1, “GLP-1R MODULATING COMPOUNDS” (Gilead Sciences, Inc., priority 2021, published 2025).

T1 sequence (P43220 24-463): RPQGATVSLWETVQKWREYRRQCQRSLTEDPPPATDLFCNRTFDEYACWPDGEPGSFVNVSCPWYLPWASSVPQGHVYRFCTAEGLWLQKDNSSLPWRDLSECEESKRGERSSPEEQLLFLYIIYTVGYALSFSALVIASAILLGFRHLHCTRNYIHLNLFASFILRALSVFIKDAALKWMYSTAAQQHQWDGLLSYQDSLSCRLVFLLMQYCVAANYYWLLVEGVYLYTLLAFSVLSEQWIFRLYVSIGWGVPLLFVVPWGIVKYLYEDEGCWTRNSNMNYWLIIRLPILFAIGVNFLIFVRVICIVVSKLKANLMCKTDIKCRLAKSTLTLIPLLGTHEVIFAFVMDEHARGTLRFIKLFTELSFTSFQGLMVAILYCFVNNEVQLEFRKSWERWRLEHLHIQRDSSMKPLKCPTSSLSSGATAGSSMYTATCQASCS

The experiment addresses T1, GLP-1R (Homo sapiens, UniProt P43220).
T1 construct: host or cells: CHO cells
Nature of the experiment: GLP-1R activation cAMP assay (Assay 1 or Assay 2). It is filed as cell-based. The conditions noted are these: cAMP increase in CHO cells stably expressing GLP-1R; compounds run on one of the two cAMP assays. Summed up:
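EC50 values come from a sigmoidal fit of HTRF-detected cAMP rise versus log agonist concentration. GLP-1R-expressing CHO cells, equilibrated 1 h at 37 °C in HBSS with HEPES and BSA, received a 10-point compound dose series for 30 min before detection.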
Background: Cyclic AMP is a second messenger, typically raised through Gs and lowered through Gi signalling.
`Cc1nc(C)c(COc2cccc(-c3cc(F)c(Cc4nc5ccc(C(=O)O)cc5n4C[C@@H]4CCO4)cc3F)n2)s1` [Example 354, (S)-2-(4-(6-((2,4-dimethylthiazol-5-yl)methoxy)pyridin-2-yl)-2,5-difluorobenzyl)-1-(oxetan-2-ylmethyl)-1H-benzo[d]imidazole-6-carboxylic acid] yielded an EC50 of 0.622 nM.

Take `O=C(O)c1ccc2nc(Cc3cc(F)c(-c4cccc(OCc5cc6ccccn6n5)n4)cc3F)n(C[C@@H]3CCO3)c2c1` [Example 28, (S)-2-(2,5-difluoro-4-(6-(pyrazolo[1,5-a]pyridin-2-ylmethoxy)pyridin-2-yl)benzyl)-1-(oxetan-2-ylmethyl)-1H-benzo[d]imidazole-6-carboxylic acid]: the midpoint of the response, the EC50, lay at 0.44 nM. The EC50 values of the last two compounds are within 1.5-fold of each other.

The compound `O=C(O)c1ccc2nc(Cc3cc(F)c(-c4cccc(OCc5nnc(-c6cnn(C7CC7)c6)s5)n4)cc3F)n(C[C@@H]3CCO3)c2c1` [Example 96, (S)-2-(4-(6-((5-(1-cyclopropyl-1H-pyrazol-4-yl)-1,3,4-thiadiazol-2-yl)methoxy)pyridin-2-yl)-2,5-difluorobenzyl)-1-(oxetan-2-ylmethyl)-1H-benzo[d]imidazole-6-carboxylic acid] gave a concentration giving a half-maximal response (EC50) of 0.13 nM.

Compound `O=C(O)c1ccc2nc(Cc3cc(F)c(-c4cccc(OCc5cn(C6CC6)nn5)n4)cc3F)n(C[C@@H]3CCO3)c2c1` [Example 210, 2-[[4-[6-[(1-cyclopropyltriazol-4-yl)methoxy]-2-pyridyl]-2,5-difluoro-phenyl]methyl]-3-[[(2S)-oxetan-2-yl]methyl]benzimidazole-5-carboxylic acid] displayed a half-maximal effective concentration (EC50) of 15.7 nM.

In the case of `Cn1cncc1C#Cc1ccc(COc2cccc(-c3cc(F)c(Cc4nc5ccc(C(=O)O)cc5n4C[C@@H]4CCO4)cc3F)n2)c(F)c1` [Example 142, (S)-2-(2,5-difluoro-4-(6-((2-fluoro-4-((1-methyl-1H-imidazol-5-yl)ethynyl)benzyl)oxy)pyridin-2-yl)benzyl)-1-(oxetan-2-ylmethyl)-1H-benzo[d]imidazole-6-carboxylic acid], the midpoint of the response, the EC50, lay at 0.25 nM.

As to `O=C(O)c1ccc2nc(Cc3cc(F)c(-c4cccc(OCc5ncc(C#CC6CC(F)(F)C6)s5)n4)cc3F)n(C[C@@H]3CCO3)c2c1` [Example 336, (S)-2-(4-(6-((5-((3,3-difluorocyclobutyl)ethynyl)thiazol-2-yl)methoxy)pyridin-2-yl)-2,5-difluorobenzyl)-1-(oxetan-2-ylmethyl)-1H-benzo[d]imidazole-6-carboxylic acid], the concentration giving a half-maximal response (EC50) is 0.261 nM.

In turn, `O=C(O)c1ccc2nc(Cc3cc(F)c(-c4cccc(OCc5ccc(-c6cn([C@H]7CCOC7)nn6)cc5F)n4)cc3F)n(C[C@@H]3CCO3)c2c1` [Example 217, 2-(2,5-difluoro-4-(6-((2-fluoro-4-(1-((S)-tetrahydrofuran-3-yl)-1H-1,2,3-triazol-4-yl)benzyl)oxy)pyridin-2-yl)benzyl)-1-(((S)-oxetan-2-yl)methyl)-1H-benzo[d]imidazole-6-carboxylic acid] showed an EC50 of 0.27 nM.

`Cn1cc(-c2cnc(COc3cccc(-c4cc(F)c(Cc5nc6ccc(C(=O)O)cc6n5[C@H]5COCC5(C)C)cc4F)n3)s2)cn1` [Example 97, (R)-2-(2,5-difluoro-4-(6-((5-(1-methyl-1H-pyrazol-4-yl)thiazol-2-yl)methoxy)pyridin-2-yl)benzyl)-1-(4,4-dimethyltetrahydrofuran-3-yl)-1H-benzo[d]imidazole-6-carboxylic acid] yielded an EC50 of 0.11 nM.

For the compound `O=C(O)c1ccc2nc(Cc3cc(F)c(-c4cccc(OCc5nnc(OCC(F)(F)F)s5)n4)cc3F)n(C[C@@H]3CCO3)c2c1` [Example 350, (S)-2-(2,5-difluoro-4-(6-((5-(2,2,2-trifluoroethoxy)-1,3,4-thiadiazol-2-yl)methoxy)pyridin-2-yl)benzyl)-1-(oxetan-2-ylmethyl)-1H-benzo[d]imidazole-6-carboxylic acid], the response was half-maximal at 0.209 nM (EC50).

`Cn1nc(COc2cccc(-c3cc(F)c(Cc4nc5ccc(C(=O)O)cc5n4C[C@@H]4CCO4)cc3F)n2)cc1C1CC1` [Example 39, (S)-2-(4-(6-((5-cyclopropyl-1-methyl-1H-pyrazol-3-yl)methoxy)pyridin-2-yl)-2,5-difluorobenzyl)-1-(oxetan-2-ylmethyl)-1H-benzo[d]imidazole-6-carboxylic acid] yielded a concentration for a half-maximal effect (EC50) of 0.86 nM.

On to `O=C(O)c1ccc2nc(Cc3cc(F)c(-c4cccc(OCc5ccc(-c6cn([C@@H]7CCOC7)nn6)cc5F)n4)cc3F)n(C[C@@H]3CCO3)c2c1` [Example 213], for which the response was half-maximal at 0.48 nM (EC50).

For `O=C(O)c1ccc2nc(Cc3cc(F)c(-c4cccc(OCc5cc(C(F)(F)F)ns5)n4)cc3F)n(C[C@@H]3CCO3)c2c1` [Example 81, (S)-2-(2,5-difluoro-4-(6-((3-(trifluoromethyl)isothiazol-5-yl)methoxy)pyridin-2-yl)benzyl)-1-(oxetan-2-ylmethyl)-1H-benzo[d]imidazole-6-carboxylic acid], a half-maximal effect (EC50) was put at 0.81 nM.

`COc1nnc(COc2cccc(-c3cc(F)c(Cc4nc5ccc(C(=O)O)cc5n4C4COCC4(C)C)c(F)c3F)n2)s1` (stereo not drawn) [Example 282, 1-(4,4-dimethyltetrahydrofuran-3-yl)-2-(2,3,6-trifluoro-4-(6-((5-methoxy-1,3,4-thiadiazol-2-yl)methoxy)pyridin-2-yl)benzyl)-1H-benzo[d]imidazole-6-carboxylic acid] returned an EC50 of 0.311 nM.

In turn, `O=C(O)c1ccc2nc(Cc3cc(F)c(-c4cccc(OCc5ncc(-c6cnccn6)s5)n4)cc3F)n(C[C@@H]3CCO3)c2c1` [Example 106, (S)-2-(2,5-difluoro-4-(6-((5-(pyrazin-2-yl)thiazol-2-yl)methoxy)pyridin-2-yl)benzyl)-1-(oxetan-2-ylmethyl)-1H-benzo[d]imidazole-6-carboxylic acid] showed a half-maximal effective concentration (EC50) of 0.14 nM.

The compound `Cn1cc(C#Cc2ccc(COc3cccc(-c4cc(F)c(Cc5nc6ccc(C(=O)O)cc6n5C[C@@H]5CCO5)cc4F)n3)cn2)cn1` [Example 147, (S)-2-(2,5-difluoro-4-(6-((6-((1-methyl-1H-pyrazol-4-yl)ethynyl)pyridin-3-yl)methoxy)pyridin-2-yl)benzyl)-1-(oxetan-2-ylmethyl)-1H-benzo[d]imidazole-6-carboxylic acid] yielded an EC50 of 0.6 nM. Compared with the last compound, the EC50 is about 4.3-fold higher.

For the compound `Cn1cc(C#Cc2ccc(COc3cccc(-c4cc(F)c(Cc5nc6c(F)cc(C(=O)O)cc6n5C[C@@H]5CCO5)cc4F)n3)cn2)cn1` [Example 391, (S)-2-(2,5-difluoro-4-(6-((6-((1-methyl-1H-pyrazol-4-yl)ethynyl)pyridin-3-yl)methoxy)pyridin-2-yl)benzyl)-4-fluoro-1-(oxetan-2-ylmethyl)-1H-benzo[d]imidazole-6-carboxylic acid], a half-maximal effect (EC50) was put at 0.305 nM.

For `CCOc1nnc(COc2cccc(-c3cc(F)c(Cc4nc5ccc(C(=O)O)c(F)c5n4CCOC)cc3F)n2)s1` [Example 396, 2-(4-(6-((5-ethoxy-1,3,4-thiadiazol-2-yl)methoxy)pyridin-2-yl)-2,5-difluorobenzyl)-7-fluoro-1-(2-methoxyethyl)-1H-benzo[d]imidazole-6-carboxylic acid], the response was half-maximal at 0.678 nM (EC50).

Compound `O=C(O)c1ccc2nc(Cc3cc(F)c(-c4cccc(OCc5ccn(-c6ccc(F)cc6)n5)n4)cc3F)n(C[C@@H]3CCO3)c2c1` [Example 62, (S)-2-(2,5-difluoro-4-(6-((1-(4-fluorophenyl)-1H-pyrazol-3-yl)methoxy)pyridin-2-yl)benzyl)-1-(oxetan-2-ylmethyl)-1H-benzo[d]imidazole-6-carboxylic acid] registered an EC50 of 1.98 nM.

The compound `Cn1nc(COc2cccc(-c3cc(F)c(Cc4nc5ccc(C(=O)O)cc5n4C[C@@H]4CCO4)cc3F)n2)cc1C(N)=O` [Example 206, (S)-2-(4-(6-((5-carbamoyl-1-methyl-1H-pyrazol-3-yl)methoxy)pyridin-2-yl)-2,5-difluorobenzyl)-1-(oxetan-2-ylmethyl)-1H-benzo[d]imidazole-6-carboxylic acid] displayed a 50% effective concentration (EC50) of 43.3 nM.

In the case of `O=C(O)c1ccc2nc(Cc3cc(F)c(-c4cccc(OCc5cc(C(F)(F)F)sn5)n4)cc3F)n(C[C@@H]3CCO3)c2c1` [Example 13, (S)-2-(2,5-difluoro-4-(6-((5-(trifluoromethyl)isothiazol-3-yl)methoxy)pyridin-2-yl)benzyl)-1-(oxetan-2-ylmethyl)-1H-benzo[d]imidazole-6-carboxylic acid], the concentration giving a half-maximal response (EC50) was 0.54 nM.

In turn, `O=C(O)c1cc(F)c2nc(Cc3cc(F)c(-c4cccc(OCc5ccc(Cl)s5)n4)cc3F)n(C[C@@H]3CCO3)c2c1` [Example 314, (S)-2-(4-(6-((5-chlorothiophen-2-yl)methoxy)pyridin-2-yl)-2,5-difluorobenzyl)-4-fluoro-1-(oxetan-2-ylmethyl)-1H-benzo[d]imidazole-6-carboxylic acid] had an EC50 of 0.094 nM.

Compound `CC(F)(F)c1cnc(COc2nc(-c3cc(F)c(Cc4nc5c(F)cc(C(=O)O)cc5n4[C@@H]4COCC4(C)C)cc3F)ccc2F)s1` [Example 338, (S)-2-(4-(6-((5-(1,1-difluoroethyl)thiazol-2-yl)methoxy)-5-fluoropyridin-2-yl)-2,5-difluorobenzyl)-1-(4,4-dimethyltetrahydrofuran-3-yl)-4-fluoro-1H-benzo[d]imidazole-6-carboxylic acid] gave an EC50 of 0.218 nM.

`CN1CC(n2cc(-c3ccc(COc4cccc(-c5cc(F)c(Cc6nc7ccc(C(=O)O)cc7n6C[C@@H]6CCO6)cc5F)n4)c(F)c3)nn2)C1` [Example 220, (S)-2-(2,5-difluoro-4-(6-((2-fluoro-4-(1-(1-methylazetidin-3-yl)-1H-1,2,3-triazol-4-yl)benzyl)oxy)pyridin-2-yl)benzyl)-1-(oxetan-2-ylmethyl)-1H-benzo[d]imidazole-6-carboxylic acid]: the concentration for a half-maximal effect (EC50) turned out to be 2.08 nM.

`O=C(O)c1ccc2nc(Cc3cc(F)c(-c4cccc(OCc5ncc(-c6ccccn6)s5)n4)cc3F)n(C[C@@H]3CCO3)c2c1` [Example 107, (S)-2-(2,5-difluoro-4-(6-((5-(pyridin-2-yl)thiazol-2-yl)methoxy)pyridin-2-yl)benzyl)-1-(oxetan-2-ylmethyl)-1H-benzo[d]imidazole-6-carboxylic acid] displayed an EC50 of 0.31 nM. Against the preceding compound, the EC50 is about 6.7-fold lower.

A word on the EC50: it is the concentration that produces a half-maximal response.
